Measurements as given in ChEMBL document CHEMBL5465560, “Selectivity Literature for EUbOPEN Chemogenomic Library” (2024).
Each block holds one molecule with its values, some of them ahead of it.

Columns and labels:
[1] = biological target: MAP/microtubule affinity-regulating kinase 3 (Homo sapiens) (UniProt P27448); conditions: at 10 µM
[2] = biological target: Tyrosine-protein kinase JAK1 (Homo sapiens, UniProt P23458); assay: Selectivity interaction (ActivX KiNativ screen (kinase selectivity in THP-1 cell lysates)) EUB0000639a JAK1; assay type: subcellular; conditions: lysate, at 1 µM
[3] = biological target: MAP/microtubule affinity-regulating kinase 3 (Homo sapiens) (UniProt P27448); assay: Selectivity interaction (ActivX KiNativ screen (kinase selectivity in THP-1 cell lysates)) EUB0000639a MARK3; assay type: subcellular; conditions: lysate
[4] = biological target: Mitogen-activated protein kinase kinase kinase 11 (Homo sapiens) (UniProt Q16584); assay: Selectivity interaction (ActivX KiNativ screen (kinase selectivity in THP-1 cell lysates)) EUB0000639a MAP3K11; assay type: subcellular; conditions: lysate, at 5 µM
[5] = biological target: Cyclin-dependent kinase 7 (Homo sapiens, UniProt P50613); conditions: at 10 µM
[6] = biological target: Phosphatidylinositol 4-phosphate 5-kinase type-1 gamma (Homo sapiens) (UniProt O60331); assay: Selectivity interaction (KinomeScan (DiscoverX)) EUB0000092b PIP5K1C; conditions: at 10 µM
[7] = biological target: T1, Serine/threonine-protein kinase ULK2 (Homo sapiens) (UniProt Q8IYT8); assay: Selectivity interaction (KinomeScan (DiscoverX)) EUB0000092b ULK2; conditions: at 10 µM
T1 sequence (whole entry): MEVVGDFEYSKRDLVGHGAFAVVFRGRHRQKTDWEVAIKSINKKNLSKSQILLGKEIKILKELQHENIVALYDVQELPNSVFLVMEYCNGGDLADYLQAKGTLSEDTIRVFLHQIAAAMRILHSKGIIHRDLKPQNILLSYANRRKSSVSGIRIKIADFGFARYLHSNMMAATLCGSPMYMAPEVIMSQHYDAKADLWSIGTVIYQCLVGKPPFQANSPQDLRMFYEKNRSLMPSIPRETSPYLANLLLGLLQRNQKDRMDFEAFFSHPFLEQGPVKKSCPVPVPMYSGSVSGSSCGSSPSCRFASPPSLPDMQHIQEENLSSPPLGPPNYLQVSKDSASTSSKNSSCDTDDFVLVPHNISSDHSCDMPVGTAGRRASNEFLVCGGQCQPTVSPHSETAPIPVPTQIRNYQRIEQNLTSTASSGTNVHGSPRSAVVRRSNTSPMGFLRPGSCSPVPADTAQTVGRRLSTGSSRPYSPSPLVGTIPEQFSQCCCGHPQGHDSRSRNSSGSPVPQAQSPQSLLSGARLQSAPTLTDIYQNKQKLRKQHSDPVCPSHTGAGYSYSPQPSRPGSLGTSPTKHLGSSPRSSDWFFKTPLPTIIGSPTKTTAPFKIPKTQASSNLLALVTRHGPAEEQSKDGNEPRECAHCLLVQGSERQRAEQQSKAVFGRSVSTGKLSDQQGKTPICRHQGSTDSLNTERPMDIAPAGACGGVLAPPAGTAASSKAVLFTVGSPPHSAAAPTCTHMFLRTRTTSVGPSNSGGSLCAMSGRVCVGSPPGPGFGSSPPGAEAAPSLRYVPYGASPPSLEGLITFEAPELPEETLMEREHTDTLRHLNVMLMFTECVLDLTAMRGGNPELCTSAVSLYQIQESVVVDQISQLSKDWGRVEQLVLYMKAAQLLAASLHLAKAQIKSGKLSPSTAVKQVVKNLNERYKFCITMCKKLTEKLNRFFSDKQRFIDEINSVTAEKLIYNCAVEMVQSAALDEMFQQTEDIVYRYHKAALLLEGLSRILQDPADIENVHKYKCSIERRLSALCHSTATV

[8] = biological target: Homeodomain-interacting protein kinase 2 (Homo sapiens, UniProt Q9H2X6); assay: Selectivity interaction (Upstate Kinase Profiler service (Millipore)) EUB0000056c HIPK2; conditions: at 1 µM
[9] = biological target: Cyclin-dependent kinase 17 (Homo sapiens) (UniProt Q00537); assay: Selectivity interaction (KinomeScan (DiscoverX)) EUB0001619a CDK17; conditions: at 1 µM
[10] = biological target: Ribosomal protein S6 kinase alpha-1 (Homo sapiens, UniProt Q15418); assay: Selectivity interaction (KinomeScan (DiscoverX)) EUB0001619a RPS6KA1; conditions: at 1 µM
[11] = biological target: T2, SNF-related serine/threonine-protein kinase (Homo sapiens) (UniProt Q9NRH2); assay: Selectivity interaction (KinomeScan (DiscoverX)) EUB0000618a SNRK; conditions: at 10 µM
T2 sequence (whole entry): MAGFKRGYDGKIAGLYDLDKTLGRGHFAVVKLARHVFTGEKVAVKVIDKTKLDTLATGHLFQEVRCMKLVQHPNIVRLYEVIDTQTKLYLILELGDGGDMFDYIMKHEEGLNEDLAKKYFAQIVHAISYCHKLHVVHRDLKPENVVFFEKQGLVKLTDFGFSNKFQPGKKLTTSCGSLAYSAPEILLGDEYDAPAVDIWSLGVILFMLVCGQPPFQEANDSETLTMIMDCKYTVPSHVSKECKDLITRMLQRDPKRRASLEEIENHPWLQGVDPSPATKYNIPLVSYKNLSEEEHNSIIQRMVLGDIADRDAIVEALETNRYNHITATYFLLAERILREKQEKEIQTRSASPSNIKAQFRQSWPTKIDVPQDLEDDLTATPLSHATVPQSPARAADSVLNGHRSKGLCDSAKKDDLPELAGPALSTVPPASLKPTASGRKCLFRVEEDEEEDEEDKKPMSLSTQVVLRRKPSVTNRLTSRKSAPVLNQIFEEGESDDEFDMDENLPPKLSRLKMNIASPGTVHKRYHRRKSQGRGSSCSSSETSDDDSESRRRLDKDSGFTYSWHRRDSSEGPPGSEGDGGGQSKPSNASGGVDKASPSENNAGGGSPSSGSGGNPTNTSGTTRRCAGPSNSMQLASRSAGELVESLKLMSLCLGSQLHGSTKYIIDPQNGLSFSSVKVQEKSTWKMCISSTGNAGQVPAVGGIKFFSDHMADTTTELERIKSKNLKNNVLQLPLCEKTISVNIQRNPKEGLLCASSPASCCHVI

Sequence of MAP/microtubule affinity-regulating kinase 3 (Homo sapiens) (P27448 whole entry, looked up): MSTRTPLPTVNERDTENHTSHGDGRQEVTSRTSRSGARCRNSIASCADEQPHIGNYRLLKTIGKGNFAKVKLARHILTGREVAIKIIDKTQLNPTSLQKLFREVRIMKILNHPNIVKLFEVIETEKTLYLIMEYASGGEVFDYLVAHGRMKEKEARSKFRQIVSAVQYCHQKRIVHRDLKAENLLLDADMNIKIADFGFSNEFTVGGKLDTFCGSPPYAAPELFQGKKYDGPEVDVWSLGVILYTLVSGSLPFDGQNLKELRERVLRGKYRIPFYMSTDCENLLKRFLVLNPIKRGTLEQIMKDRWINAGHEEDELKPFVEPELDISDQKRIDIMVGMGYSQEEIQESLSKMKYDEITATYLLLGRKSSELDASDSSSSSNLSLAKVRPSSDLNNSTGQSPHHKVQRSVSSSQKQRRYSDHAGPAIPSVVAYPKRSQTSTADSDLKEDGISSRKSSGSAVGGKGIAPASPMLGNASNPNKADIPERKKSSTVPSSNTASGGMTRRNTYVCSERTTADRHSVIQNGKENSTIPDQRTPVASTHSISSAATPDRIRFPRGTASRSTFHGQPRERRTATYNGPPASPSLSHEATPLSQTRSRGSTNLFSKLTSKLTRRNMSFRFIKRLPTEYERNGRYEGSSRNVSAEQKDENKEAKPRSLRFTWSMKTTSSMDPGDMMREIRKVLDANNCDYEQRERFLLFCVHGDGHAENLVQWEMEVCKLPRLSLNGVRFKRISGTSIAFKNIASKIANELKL
Sequence of Tyrosine-protein kinase JAK1 (P23458 whole entry): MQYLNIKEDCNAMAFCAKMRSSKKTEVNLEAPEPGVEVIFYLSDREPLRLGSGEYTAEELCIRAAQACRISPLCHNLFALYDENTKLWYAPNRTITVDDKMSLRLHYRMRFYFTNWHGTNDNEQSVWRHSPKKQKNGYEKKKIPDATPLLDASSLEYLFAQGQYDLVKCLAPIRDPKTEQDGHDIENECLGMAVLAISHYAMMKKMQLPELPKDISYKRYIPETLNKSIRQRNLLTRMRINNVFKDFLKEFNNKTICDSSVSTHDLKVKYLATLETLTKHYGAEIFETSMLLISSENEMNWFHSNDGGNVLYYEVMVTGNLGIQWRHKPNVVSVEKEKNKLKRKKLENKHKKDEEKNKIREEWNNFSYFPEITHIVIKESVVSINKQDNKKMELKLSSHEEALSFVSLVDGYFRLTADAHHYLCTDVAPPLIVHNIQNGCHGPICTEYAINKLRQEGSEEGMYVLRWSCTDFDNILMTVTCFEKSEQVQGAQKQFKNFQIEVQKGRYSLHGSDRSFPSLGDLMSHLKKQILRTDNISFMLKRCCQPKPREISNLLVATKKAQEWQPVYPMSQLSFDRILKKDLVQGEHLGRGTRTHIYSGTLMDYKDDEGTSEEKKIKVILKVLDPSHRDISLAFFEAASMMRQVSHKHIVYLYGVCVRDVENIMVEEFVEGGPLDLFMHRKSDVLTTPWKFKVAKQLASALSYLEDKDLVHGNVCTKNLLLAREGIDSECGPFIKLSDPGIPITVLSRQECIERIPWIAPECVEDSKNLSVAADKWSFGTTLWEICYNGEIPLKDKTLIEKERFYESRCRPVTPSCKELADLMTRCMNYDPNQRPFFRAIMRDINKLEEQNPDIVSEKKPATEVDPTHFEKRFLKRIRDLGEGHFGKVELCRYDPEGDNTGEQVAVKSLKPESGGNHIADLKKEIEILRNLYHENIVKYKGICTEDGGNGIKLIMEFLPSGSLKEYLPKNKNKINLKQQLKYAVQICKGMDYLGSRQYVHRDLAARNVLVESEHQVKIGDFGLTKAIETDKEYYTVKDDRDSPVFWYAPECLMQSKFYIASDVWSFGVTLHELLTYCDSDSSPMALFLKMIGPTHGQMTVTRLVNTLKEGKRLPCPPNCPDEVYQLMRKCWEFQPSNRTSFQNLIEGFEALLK
Sequence of Ribosomal protein S6 kinase alpha-1 (Q15418 whole entry): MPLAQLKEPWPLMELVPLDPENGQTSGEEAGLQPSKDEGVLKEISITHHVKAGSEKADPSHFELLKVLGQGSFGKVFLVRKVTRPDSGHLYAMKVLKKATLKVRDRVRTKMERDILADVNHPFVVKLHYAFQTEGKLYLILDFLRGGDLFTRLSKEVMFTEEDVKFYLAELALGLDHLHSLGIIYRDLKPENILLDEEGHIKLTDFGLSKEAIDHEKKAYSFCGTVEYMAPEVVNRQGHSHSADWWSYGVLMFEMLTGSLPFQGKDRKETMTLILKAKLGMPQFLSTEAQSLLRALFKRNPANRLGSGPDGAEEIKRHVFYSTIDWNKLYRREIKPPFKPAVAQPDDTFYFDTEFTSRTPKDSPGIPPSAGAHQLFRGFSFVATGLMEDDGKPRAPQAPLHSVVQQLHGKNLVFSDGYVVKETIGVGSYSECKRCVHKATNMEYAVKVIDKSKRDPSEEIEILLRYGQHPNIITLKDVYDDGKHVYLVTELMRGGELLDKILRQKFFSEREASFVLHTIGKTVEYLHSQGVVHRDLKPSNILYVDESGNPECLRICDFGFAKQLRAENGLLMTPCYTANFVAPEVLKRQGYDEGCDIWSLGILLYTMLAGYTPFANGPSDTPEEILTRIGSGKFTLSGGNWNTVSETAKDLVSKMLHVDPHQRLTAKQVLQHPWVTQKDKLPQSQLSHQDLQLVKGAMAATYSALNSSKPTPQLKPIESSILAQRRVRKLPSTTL
Sequence of Homeodomain-interacting protein kinase 2 (Q9H2X6 whole entry, looked up): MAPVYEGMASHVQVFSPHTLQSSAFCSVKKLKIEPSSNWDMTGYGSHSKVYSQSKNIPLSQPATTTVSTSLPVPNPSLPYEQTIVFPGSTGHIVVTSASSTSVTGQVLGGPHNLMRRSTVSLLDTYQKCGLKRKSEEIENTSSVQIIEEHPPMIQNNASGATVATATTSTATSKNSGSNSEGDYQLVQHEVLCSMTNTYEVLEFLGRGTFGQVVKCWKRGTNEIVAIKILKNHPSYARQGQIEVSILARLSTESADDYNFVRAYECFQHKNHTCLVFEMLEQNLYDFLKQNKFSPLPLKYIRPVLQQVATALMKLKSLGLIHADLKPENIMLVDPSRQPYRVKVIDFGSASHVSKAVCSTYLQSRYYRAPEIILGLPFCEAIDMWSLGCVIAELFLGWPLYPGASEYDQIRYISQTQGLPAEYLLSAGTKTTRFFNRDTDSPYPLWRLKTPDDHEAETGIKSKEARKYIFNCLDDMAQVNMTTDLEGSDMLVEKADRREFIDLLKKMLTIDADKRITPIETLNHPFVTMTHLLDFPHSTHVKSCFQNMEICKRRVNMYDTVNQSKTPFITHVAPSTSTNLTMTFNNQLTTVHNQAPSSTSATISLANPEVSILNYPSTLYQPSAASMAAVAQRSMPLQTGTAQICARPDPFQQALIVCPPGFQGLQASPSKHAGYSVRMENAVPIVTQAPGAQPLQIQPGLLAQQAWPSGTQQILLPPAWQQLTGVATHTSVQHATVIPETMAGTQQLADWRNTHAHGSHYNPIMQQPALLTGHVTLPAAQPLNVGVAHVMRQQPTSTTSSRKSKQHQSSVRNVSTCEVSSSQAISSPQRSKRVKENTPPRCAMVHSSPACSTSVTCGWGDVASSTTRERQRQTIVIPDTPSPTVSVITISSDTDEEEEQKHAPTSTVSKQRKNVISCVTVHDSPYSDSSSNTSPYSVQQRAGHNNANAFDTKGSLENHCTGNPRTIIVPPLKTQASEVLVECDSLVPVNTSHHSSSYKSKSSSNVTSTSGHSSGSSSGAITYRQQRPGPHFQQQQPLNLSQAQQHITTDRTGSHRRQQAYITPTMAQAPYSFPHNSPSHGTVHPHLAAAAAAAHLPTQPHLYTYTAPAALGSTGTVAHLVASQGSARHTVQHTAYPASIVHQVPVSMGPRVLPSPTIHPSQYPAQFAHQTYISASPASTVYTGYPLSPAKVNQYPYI
Sequence of Phosphatidylinositol 4-phosphate 5-kinase type-1 gamma (Homo sapiens) (O60331 whole entry): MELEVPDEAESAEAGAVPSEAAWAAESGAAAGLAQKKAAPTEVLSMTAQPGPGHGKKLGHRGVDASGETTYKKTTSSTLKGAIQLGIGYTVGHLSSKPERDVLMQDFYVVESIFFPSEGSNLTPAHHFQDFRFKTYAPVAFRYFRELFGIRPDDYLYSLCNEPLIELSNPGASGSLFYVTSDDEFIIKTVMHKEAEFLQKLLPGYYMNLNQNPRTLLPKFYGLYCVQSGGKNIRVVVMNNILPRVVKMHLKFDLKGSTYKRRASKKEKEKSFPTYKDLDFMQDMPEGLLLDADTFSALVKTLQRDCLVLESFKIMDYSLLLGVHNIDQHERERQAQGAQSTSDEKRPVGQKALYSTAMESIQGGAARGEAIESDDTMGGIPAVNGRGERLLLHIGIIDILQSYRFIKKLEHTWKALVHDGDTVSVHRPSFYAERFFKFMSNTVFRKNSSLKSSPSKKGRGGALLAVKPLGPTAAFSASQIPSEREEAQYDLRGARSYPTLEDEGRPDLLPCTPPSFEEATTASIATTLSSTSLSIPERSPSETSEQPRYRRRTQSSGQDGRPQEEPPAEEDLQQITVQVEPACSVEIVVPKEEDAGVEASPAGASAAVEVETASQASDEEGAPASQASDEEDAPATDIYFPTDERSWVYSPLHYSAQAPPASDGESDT
Sequence of Cyclin-dependent kinase 17 (Homo sapiens) (Q00537 whole entry, looked up): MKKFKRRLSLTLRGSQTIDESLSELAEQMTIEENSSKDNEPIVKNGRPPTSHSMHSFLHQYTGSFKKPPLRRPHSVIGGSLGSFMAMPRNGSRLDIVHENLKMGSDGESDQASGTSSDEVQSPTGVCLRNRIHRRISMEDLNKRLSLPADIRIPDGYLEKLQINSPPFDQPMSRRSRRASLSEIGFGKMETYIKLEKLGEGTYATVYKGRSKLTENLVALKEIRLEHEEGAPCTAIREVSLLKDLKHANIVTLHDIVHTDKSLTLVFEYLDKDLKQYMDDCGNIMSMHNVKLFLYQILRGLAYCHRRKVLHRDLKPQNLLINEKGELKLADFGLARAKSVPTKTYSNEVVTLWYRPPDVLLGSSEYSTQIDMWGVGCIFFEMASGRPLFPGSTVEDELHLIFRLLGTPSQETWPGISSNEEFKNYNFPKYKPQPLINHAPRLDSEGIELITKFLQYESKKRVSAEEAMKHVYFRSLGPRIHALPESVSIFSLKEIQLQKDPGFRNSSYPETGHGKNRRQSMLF

SMILES: Cc1cc([C@@H](C)Nc2ccccc2C(=O)O)c2nc(N3CCOCC3)cc(=O)n2c1 [AZD-6482]
% of control [1]: 89%

% of inhibition [2]: -1.3%
% of inhibition ([3]; at 0.01 µM): 10%
% of inhibition ([3]; at 0.04 µM): 17.3%
% of inhibition ([3]; at 0.2 µM): 11.9%
% of inhibition ([3]; at 1 µM): 26.3%
% of inhibition ([3]; at 5 µM): 51.4%
% of inhibition [4]: -18.7%
SMILES: CC[C@@H]1[C@H](F)C(=O)N[C@@H]1COc1nccc2cc(C(N)=O)c(OC)cc12 [ZIMLOVISERTIB]

% of control [5]: 100%
SMILES: CCN(CC)CCCCNc1ncc2cc(-c3cc(OC)cc(OC)c3)c(NC(=O)NC(C)(C)C)nc2n1

SMILES: CCC(=O)N1CCN(c2ccc(-n3c(=O)ccc4cnc5ccc(-c6cnc7ccccc7c6)cc5c43)cc2C(F)(F)F)CC1
% of control [6]: 80%
% of control [7]: 75%

% of inhibition [8]: 2%
SMILES: Cc1ccc(-c2ccc3c(ccc4sc5c(c43)NC[C@@H](C)NC5=O)n2)cn1

SMILES: N#Cc1cccc(-c2c[nH]c3ncnc(N4CCOCC4)c23)c1
% of control [9]: 100%
% of control [10]: 100%

SMILES: O[C@H]1CC[C@H](Nc2ncc3nc(Nc4c(F)cc(F)cc4F)n([C@H]4CCOC4)c3n2)CC1
% of control [11]: 100%
